Reference: patent US9862717B2 (Merck Patent GmbH, priority 2014, dated 2018)

molecular target: T1, CDK8/CycC (Homo sapiens, UniProt P49336); test: FRET based Lanthascreen binding competition assay for CDK8 inhibitory activity; settings: CDK8 co-expressed with CycC; class symbols; read-out: IC50
T1 construct: purchased Invitrogen PV4402
From the text: Biochemical Assay for CDK8 Inhibitory Activity FRET based Lanthascreen binding competition assay: A dye-labeled ATP competitive probe served as a FRET acceptor upon binding to CDK8 labeled with a strepavidin -Eu-chelate (via a biotinylated anti His antibody). The result was a fluorescence signal at 647 nm. In case this probe was competed by an inhibitor, such a signal cannot be generated any more. The CDK8 used for this assay was a protein co-expressed with CycC. The assay procedure for an assay in a 1536 well plate was performed according to the following: 2 μL CDK8/biotin-anti-His Ab/SA-Eu mix in Assay buffer were pipetted into the wells of a micro plate. 1 μL compound in 20 mM Hepes buffer/5% DMSO was added. The plate was shaken for 30 sec and incubated for 20 min at RT. 2 μL Alexa647-probe in assay buffer were added. The plate was shaken for 30 sec again and incubated for 60 min at RT in the dark. Then the plate was read out on a Perkin Elmer Envision (mode LANCE/TRF, excitation 340 nm emission 650 nm). […] The readouts were fitted to IC50 curves using Genedata Condoseo.

T1 sequence (P49336 whole entry): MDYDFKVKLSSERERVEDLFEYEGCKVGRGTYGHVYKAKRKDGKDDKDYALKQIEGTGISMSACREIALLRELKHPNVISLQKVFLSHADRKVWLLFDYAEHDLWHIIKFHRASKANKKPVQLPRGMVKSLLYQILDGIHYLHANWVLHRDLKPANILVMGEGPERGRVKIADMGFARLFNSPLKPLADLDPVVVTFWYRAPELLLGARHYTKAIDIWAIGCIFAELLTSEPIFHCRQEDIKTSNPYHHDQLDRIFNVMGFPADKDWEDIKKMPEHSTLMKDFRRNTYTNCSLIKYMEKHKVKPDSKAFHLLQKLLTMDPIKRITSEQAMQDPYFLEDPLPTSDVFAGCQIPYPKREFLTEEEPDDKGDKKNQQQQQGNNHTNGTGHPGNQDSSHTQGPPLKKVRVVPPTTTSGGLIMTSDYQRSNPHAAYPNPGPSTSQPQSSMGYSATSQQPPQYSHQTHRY
T1 sequence (P24863 whole entry partner): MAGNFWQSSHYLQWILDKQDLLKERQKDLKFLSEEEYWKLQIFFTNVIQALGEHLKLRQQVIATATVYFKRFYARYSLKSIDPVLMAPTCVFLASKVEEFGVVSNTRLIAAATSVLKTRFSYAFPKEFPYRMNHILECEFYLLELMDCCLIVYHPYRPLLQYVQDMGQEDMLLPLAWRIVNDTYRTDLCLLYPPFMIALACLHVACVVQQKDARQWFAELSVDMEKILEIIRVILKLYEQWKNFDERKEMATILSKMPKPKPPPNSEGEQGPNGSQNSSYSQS

| SMILES | IC50 [µM] |
| --- | --- |
| Cc1n[nH]c2ncc(C(=O)N3CCCCC3Cc3ccccc3)cc12 (centres unmarked) [compound 19, (2-Benzyl-piperidin-1-yl)-(3-methyl-1H-pyrazolo[3,4-b]pyridin-5-yl)-methanone] | 0.1 to 1 |
| Cc1n[nH]c2ncc(C(=O)N3CCCC[C@H]3Cc3ccccc3)cc12 [compound 24, ((S)-2-Benzyl-piperidin-1-yl)-(3-methyl-1H-pyrazolo[3,4-b]pyridin-5-yl)-methanone] | 0.1 to 1 |
| Cc1n[nH]c2ncc(C(=O)N3CCCC3c3ccccn3)cc12 (centres unmarked) [compound 30, (3-Methyl-1H-pyrazolo[3,4-b]pyridin-5-yl)-(2-pyridin-2-yl-pyrrolidin-1-yl)-methanone] | 0.1 to 1 |
| Cc1n[nH]c2ncc(C(=O)N3CCCC3c3ccncc3)cc12 (centres unmarked) [compound 32, (3-Methyl-1H-pyrazolo[3,4-b]pyridin-5-yl)-(2-pyridin-4-yl-pyrrolidin-1-yl)-methanone] | 0.1 to 1 |
| CSc1ccccc1[C@@H]1CCCN1C(=O)c1cnc2[nH]nc(C)c2c1 [compound 33, (3-Methyl-1H-pyrazolo[3,4-b]pyridin-5-yl)-[(S)-2-(2-methylsulfanyl-phenyl)-pyrrolidin-1-yl]-methanone] | 0.1 to 1 |
| CSc1ccccc1[C@H]1CCCN1C(=O)c1cnc2[nH]nc(C)c2c1 [compound 34, (3-Methyl-1H-pyrazolo[3,4-b]pyridin-5-yl)-[(R)-2-(2-methylsulfanyl-phenyl)-pyrrolidin-1-yl]-methanone] | 0.1 to 1 |
| Cc1n[nH]c2ncc(C(=O)N3CCC[C@@H]3c3ccccc3Cl)cc12 [compound 37, [(R)-2-(2-Chloro-phenyl)-pyrrolidin-1-yl]-(3-methyl-1H-pyrazolo[3,4-b]pyridin-5-yl)-methanone] | 0.1 to 1 |
| Cc1n[nH]c2ncc(C(=O)N3CCC[C@@H]3c3ccccc3)cc12 [compound 38, (3-Methyl-1H-pyrazolo[3,4-b]pyridin-5-yl)-((R)-2-phenyl-pyrrolidin-1-yl)-methanone] | 0.1 to 1 |
| Cc1n[nH]c2ncc(C(=O)N3CC[C@H](c4ccccc4)C3)cc12 [compound 40, (3-Methyl-1H-pyrazolo[3,4-b]pyridin-5-yl)-((R)-3-phenyl-pyrrolidin-1-yl)-methanone] | 0.1 to 1 |
| Cc1n[nH]c2ncc(C(=O)N3CCC[C@@H]3c3ccc(F)cc3)cc12 [compound 44, [(R)-2-(4-Fluoro-phenyl)-pyrrolidin-1-yl]-(3-methyl-1H-pyrazolo[3,4-b]pyridin-5-yl)-methanone] | 0.1 to 1 |
| Cc1n[nH]c2ncc(C(=O)N3CCC[C@@H]3c3cccc(Cl)c3)cc12 [compound 45, [(r)-2-(3-Chloro-phenyl)-pyrrolidin-1-yl]-(3-methyl-1H-pyrazolo[3,4-b]pyridin-5-yl)-methanone] | 0.1 to 1 |
| Cc1n[nH]c2ncc(C(=O)N3CCC[C@H]3c3cccc(Cl)c3)cc12 [compound 46, [(S)-2-(3-Chloro-phenyl)-pyrrolidin-1-yl]-(3-methyl-1H-pyrazolo[3,4-b]pyridin-5-yl)-methanone] | 0.01 to 0.1 |
| Cc1n[nH]c2ccc(C(=O)N3CCC[C@@H]3c3ccc(Br)cc3)cc12 [compound 50, [(R)-2-(4-Bromo-phenyl)-pyrrolidin-1-yl]-(3-methyl-1H-indazol-5-yl)-methanone] | 0.1 to 1 |
| Cc1n[nH]c2ccc(C(=O)N3CCC[C@@H]3c3ccc(Br)cc3)nc12 [compound 53, [(R)-2-(4-Bromo-phenyl)-pyrrolidin-1-yl]-(3-methyl-1H-pyrazolo[4,3-b]pyridin-5-yl)-methanone] | 0.1 to 1 |
| Cc1n[nH]c2ncc(C(=O)N3CCC3c3ccc(Cl)cc3)cc12 (centres unmarked) [compound 55, [2-(4-Chloro-phenyl)-azetidin-1-yl]-(3-methyl-1H-pyrazolo[3,4-b]pyridin-5-yl)-methanone] | 0.01 to 0.1 |
| Cc1n[nH]c2ncc(C(=O)N3CC[C@H]3c3ccc(F)cc3)cc12 [compound 56, [(S)-2-(4-Fluoro-phenyl)-azetidin-1-yl]-(3-methyl-1H-pyrazolo[3,4-b]pyridin-5-yl)-methanone] | 0.01 to 0.1 |
| Cc1n[nH]c2ncc(C(=O)N3CCCCCC3c3ccc(Cl)cc3)cc12 (centres unmarked) [compound 57, [2-(4-Chloro-phenyl)-azepan-1-yl]-(3-methyl-1H-pyrazolo[3,4-b]pyridin-5-yl)-methanone] | 0.1 to 1 |
| Cc1n[nH]c2ncc(C(=O)N3CCCCCC3c3cccc(F)c3)cc12 (centres unmarked) [compound 58, [2-(3-Fluoro-phenyl)-azepan-1-yl]-(3-methyl-1H-pyrazolo[3,4-b]pyridin-5-yl)-methanone] | 0.01 to 0.1 |
| Cc1n[nH]c2ncc(C(=O)N3CCCCC(c4ccc(Cl)cc4)C3)cc12 (centres unmarked) [compound 59, [3-(4-Chloro-phenyl)-azepan-1-yl]-(3-methyl-1H-pyrazolo[3,4-b]pyridin-5-yl)-methanone] | 0.01 to 0.1 |
| Cc1n[nH]c2ncc(C(=O)N3CCCC3c3ccccc3OCC(F)(F)F)cc12 (centres unmarked) [compound 65, (3-Methyl-1H-pyrazolo[3,4-b]pyridin-5-yl)-{2-[2-(2,2,2-trifluoro-ethoxy)-phenyl]-pyrrolidin-1-yl}-methanone] | 0.1 to 1 |

Now from value to molecule:

| IC50 [µM] | SMILES |
| --- | --- |
| < 0.01 | Cc1n[nH]c2ncc(C(=O)N3CCCC3c3ccccc3)cc12 (centres unmarked) [compound 20, (3-Methyl-1H-pyrazolo[3,4-b]pyridin-5-yl)-(2-phenyl-pyrrolidin-1-yl)-methanone] |
| 0.01 to 0.1 | Cc1n[nH]c2ncc(C(=O)N3CCCC3c3cccc(Cl)c3)cc12 (centres unmarked) [compound 21, [2-(3-Chloro-phenyl)-pyrrolidin-1-yl]-(3-methyl-1H-pyrazolo[3,4-b]pyridin-5-yl)-methanone] |
| 0.01 to 0.1 | Cc1n[nH]c2ncc(C(=O)N3CCC(c4ccccc4)C3)cc12 (centres unmarked) [compound 22, (3-Methyl-1H-pyrazolo[3,4-b]pyridin-5-yl)-(3-phenyl-pyrrolidin-1-yl)-methanone] |
| 0.01 to 0.1 | Cc1n[nH]c2ncc(C(=O)N3CCCC3c3ccccc3Cl)cc12 (centres unmarked) [compound 23, [2-(2-Chloro-phenyl)-pyrrolidin-1-yl]-(3-methyl-1H-pyrazolo[3,4-b]pyridin-5-yl)-methanone] |
| < 0.01 | Cc1n[nH]c2ncc(C(=O)N3CCCC3c3ccc(F)cc3)cc12 (centres unmarked) [compound 26, [2-(4-Fluoro-phenyl)-pyrrolidin-1-yl]-(3-methyl-1H-pyrazolo[3,4-b]pyridin-5-yl)-methanone] |
| 0.01 to 0.1 | Cc1n[nH]c2ncc(C(=O)N3CCCC[C@H]3c3ccccc3)cc12 [compound 28, (3-Methyl-1H-pyrazolo[3,4-b]pyridin-5-yl)-((S)-2-phenyl-piperidin-1-yl)-methanone] |
| < 0.01 | CC(C)Cc1n[nH]c2ccc(C(=O)N3CCC[C@H]3c3ccc(Cl)cc3)cc12 [compound 31] |
| 0.01 to 0.1 | Cc1n[nH]c2ncc(C(=O)N3CCC[C@H]3c3ccccc3Cl)cc12 [compound 36, [(S)-2-(2-Chloro-phenyl)-pyrrolidin-1-yl]-(3-methyl-1H-pyrazolo[3,4-b]pyridin-5-yl)-methanone] |
| < 0.01 | Cc1n[nH]c2ncc(C(=O)N3CCC[C@H]3c3ccccc3)cc12 [compound 39, (3-Methyl-1H-pyrazolo[3,4-b]pyridin-5-yl)-((S)-2-phenyl-pyrrolidin-1-yl)-methanone] |
| 0.01 to 0.1 | Cc1n[nH]c2ncc(C(=O)N3CC[C@@H](c4ccccc4)C3)cc12 [compound 41, (3-Methyl-1H-pyrazolo[3,4-b]pyridin-5-yl)-((S)-3-phenyl-pyrrolidin-1-yl)-methanone] |
| < 0.01 | Cc1n[nH]c2ncc(C(=O)N3CCC[C@H]3c3ccc(F)cc3)cc12 [compound 43, [(S)-2-(4-Fluoro-phenyl)-pyrrolidin-1-yl]-(3-methyl-1H-pyrazolo[3,4-b]pyridin-5-yl)-methanone] |
| < 0.01 | Cc1n[nH]c2ccc(C(=O)N3CCC[C@H]3c3ccc(Br)cc3)cc12 [compound 49, [(S)-2-(4-Bromo-phenyl)-pyrrolidin-1-yl]-(3-methyl-1H-indazol-5-yl)-methanone] |
| < 0.01 | Cc1n[nH]c2ccc(C(=O)N3CCC[C@H]3c3ccc(Br)cc3)nc12 [compound 54, [(S)-2-(4-Bromo-phenyl)-pyrrolidin-1-yl]-(3-methyl-1H-pyrazolo[4,3-b]pyridin-5-yl)-methanone] |
| < 0.01 | Cc1ccc(C2CCCN2C(=O)c2cnc3[nH]nc(C)c3c2)cc1 (centres unmarked) [compound 62, (3-Methyl-1H-pyrazolo[3,4-b]pyridin-5-yl)-(2-p-tolyl-pyrrolidin-1-yl)-methanone] |
| < 0.01 | Cc1n[nH]c2ncc(C(=O)N3CCCC3c3ccc(C(F)(F)F)cc3)cc12 (centres unmarked) [compound 63, (3-Methyl-1H-pyrazolo[3,4-b]pyridin-5-yl)-[2-(4-trifluoromethyl-phenyl)-pyrrolidin-1-yl]-methanone] |

same assay, conditions: IC50 [μM], CDK8 co-expressed with CycC; class symbols

| IC50 [µM] | SMILES |
| --- | --- |
| 0.1 to 1 | Cc1n[nH]c2ccc(C(=O)N3CCC[C@@H]3c3ccc(Cl)cc3)cc12 [compound 47, [(R)-2-(4-Chloro-phenyl)-pyrrolidin-1-yl]-(3-methyl-1H-indazol-5-yl)-methanone] |
| < 0.01 | Cc1n[nH]c2ccc(C(=O)N3CCC[C@H]3c3ccc(Cl)cc3)cc12 [compound 48, [(S)-2-(4-Chloro-phenyl)-pyrrolidin-1-yl]-(3-methyl-1H-indazol-5-yl)-methanone] |
| < 0.01 | Cc1n[nH]c2ccc(C(=O)N3CCC[C@H]3c3ccc(Cl)cc3)nc12 [compound 52, [(S)-2-(4-Chloro-phenyl)-pyrrolidin-1-yl]-(3-methyl-1H-pyrazolo[4,3-b]pyridin-5-yl)-methanone] |
